In assay [1] the test system is blood flow in coronary, mesenteric, hind limb and renal vascular beds. The experiment in a line: Example 8: vasodilator effects in different vascular beds (CBF, MBF, LBF, RBF) in awake dogs. Format: in vivo. As to conditions: CVT-3146 2.5 μg/kg, ADO 250 μg/kg. The protocol:
Example 8 employed a pharmaceutical composition consisting of an aqueous composition of 100 micrograms/mL CVT-3146 in 15% (w:v) propylene glycol and 100 mM phosphate buffer at pH 7 with 0.1% EDTA. The formulation was stored in type I glass vials at 5 mL per vial.
In this study the vasodilator effects of CVT-3146 were compared to those of ADO in different vascular beds in awake dogs. Dogs were chronically instrumented for measurements of the blood flow in coronary (CBF), mesenteric (MBF), hind limb (LBF), and renal (RBF) vascular beds, and hemodynamics.

Assay [2] deals with heart rate (HR) and blood pressure (BP). Kind of assay: Example 5: heart rate, blood pressure and plasma catecholamines after i.v. bolus in awake rats (sympathoexcitation). As to conditions: in the presence of hexamethonium 10 mg/kg, n=5. Format: in vivo. As to the method:
The present study was carried out to determine whether CVT-3146, a selective A2A adenosine receptor agonist, causes sympathoexcitation.
CVT (0.31 μg/kg-50 μg/kg) was given as a rapid i.v. bolus to awake rats and heart rate (HR) and blood pressure (BP) were monitored. CVT-3146 caused an increase in BP and systolic pressure (SP) at lower doses while at higher doses there was a decrease in BP and SP. […] The increase in HR was evident at the lowest dose of CVT at which there was no appreciable decrease in BP. ZM241385 (30 μg/kg, N=5), an A2A receptor antagonist, attenuated the decrease in BP (CVT-3146: 14±3%, ZM: 1±1%) and the increase in HR (CVT: 27±3%, ZM: 18±3%) caused by CVT-3146. Pretreatment with metoprolol (MET, 1 mg/kg, n=5), a beta-blocker, attenuated the increase in HR (CVT: 27±3%, MET: 15±2%), but had no effect on hypotension caused by CVT-3146. In the presence of hexamethonium (HEX, 10 mg/kg, n=5), a ganglionic blocker, the tachycardia was prevented (CVT: 27±3%, HEX: −1±2%), but BP was further reduced (CVT: −11±2%, HEX: −49±5%).

For the molecule `Nc1ncnc2c1ncn2[C@@H]1O[C@H](CO)[C@@H](O)[C@H]1O` [adenosine, reference compound], the “duration for CBF above 2-fold of the baseline” value in assay [1] turned out to be 16 ± 3 s.
On to `C[N+](C)(C)CCCCCC[N+](C)(C)C` [hexamethonium, reference compound], for which, in assay [2], the “change in BP caused by CVT-3146” value is reported as −49±5% and the “increase in HR (tachycardia) caused by CVT-3146” value is recorded as −1±2%.

These data come from patent US9289446B2, “Myocardial perfusion imaging methods and compositions” (GILEAD SCIENCES, INC., priority 2002, dated 2016).
